PubChem BioAssay (NCI)
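Compound exposure: 48 hours, 5 concentrations, 96-well plates. At the TGI there is no net growth.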

Tests used:
Assay in all cases: NCI-60 cell line screen, 48 h
[1] = system: MDA-MB-231 breast
[2] = system: MALME-3M melanoma
[3] = system: SK-MEL-5 melanoma
[4] = system: MCF7 breast
[5] = system: OVCAR-3 ovarian
[6] = system: TK-10 renal
[7] = system: 786-0 renal
[8] = system: UACC-257 melanoma
[9] = system: RPMI-8226 leukemia
[10] = system: HOP-62 NSCLC
[11] = system: KM12 colon
[12] = system: CCRF-CEM leukemia
[13] = system: CAKI-1 renal
[14] = system: SK-OV-3 ovarian
[15] = system: SF-539 CNS
[16] = system: SNB-19 CNS
[17] = system: HCC-2998 colon
[18] = system: U251 CNS
[19] = system: OVCAR-8 ovarian
[20] = system: SF-295 CNS
[21] = system: HCT-116 colon
[22] = system: OVCAR-5 ovarian
[23] = system: SK-MEL-2 melanoma
[24] = system: SW-620 colon
[25] = system: HCT-15 colon
[26] = system: MDA-MB-435
[27] = system: UACC-62 melanoma
[28] = system: OVCAR-4 ovarian
[29] = system: NCI-H522 lung
[30] = system: NCI-H226 lung
[31] = system: K-562 leukemia
[32] = system: IGROV1 ovarian
[33] = system: SN12C renal
[34] = system: NCI-H460 lung
[35] = system: M14 melanoma
[36] = system: ACHN renal
[37] = system: NCI/ADR-RES ovarian
[38] = system: BT-549 breast
[39] = system: HOP-92 NSCLC
[40] = system: HT29 colon
[41] = system: MDA-N
[42] = system: PC-3 prostate
[43] = system: SF-268 CNS
[44] = system: A498 renal
[45] = system: HL-60(TB) leukemia
[46] = system: COLO 205 colon
[47] = system: RXF 393 renal
[48] = system: MOLT-4 leukemia
[49] = system: T-47D breast
[50] = system: UO-31 renal
[51] = system: NCI-H23 lung
[52] = system: A549 NSCLC
[53] = system: EKVX NSCLC
[54] = system: SK-MEL-28 melanoma
[55] = system: DU-145 prostate
[56] = system: LOX IMVI melanoma
[57] = system: SR leukemia
[58] = system: SNB-75 CNS
[59] = system: HS 578T breast

Structure (SMILES): O=C(NN1C(=O)CSC1c1ccco1)c1ccncc1 (stereo unspecified)
- TGI [1]: > 100 µM
- TGI [2]: > 100 µM
- TGI [3]: > 100 µM
- TGI [4]: > 100 µM
- TGI [5]: > 100 µM
- TGI [6]: > 100 µM
- TGI [7]: > 100 µM
- TGI [8]: > 100 µM
- TGI [9]: > 100 µM
- TGI [10]: > 100 µM
- TGI [11]: > 100 µM
- TGI [12]: > 100 µM
- TGI [13]: > 100 µM
- TGI [14]: > 100 µM
- TGI [15]: > 100 µM
- TGI [16]: > 100 µM
- TGI [17]: > 100 µM
- TGI [18]: > 100 µM
- TGI [19]: > 100 µM
- TGI [20]: > 100 µM
- TGI [21]: > 100 µM
- TGI [22]: > 100 µM
- TGI [23]: > 100 µM
- TGI [24]: > 100 µM
- TGI [25]: > 100 µM
- TGI [26]: > 100 µM
- TGI [27]: > 100 µM
- TGI [28]: > 100 µM
- TGI [29]: > 100 µM
- TGI [30]: > 100 µM
- TGI [31]: > 100 µM
- TGI [32]: > 100 µM
- TGI [33]: > 100 µM
- TGI [34]: > 100 µM
- TGI [35]: > 100 µM
- TGI [36]: > 100 µM
- TGI [37]: > 100 µM
- TGI [38]: > 100 µM
- TGI [39]: > 100 µM
- TGI [40]: > 100 µM
- TGI [41]: > 100 µM
- TGI [42]: > 100 µM
- TGI [43]: > 100 µM
- TGI [44]: > 100 µM
- TGI [45]: > 100 µM
- TGI [46]: > 100 µM
- TGI [47]: > 100 µM
- TGI [48]: > 100 µM
- TGI [49]: > 100 µM
- TGI [50]: > 100 µM
- TGI [51]: > 100 µM
- TGI [52]: > 100 µM
- TGI [53]: > 100 µM
- TGI [54]: > 100 µM
- TGI [55]: > 100 µM

Structure (SMILES): CN(C)CCCNc1cnc2cc3ccccc3cc2n1
- TGI [1]: 41.4 µM
- TGI [2]: 44.5 µM
- TGI [3]: 45 µM
- TGI [4]: 44.8 µM
- TGI [5]: > 100 µM
- TGI [6]: 78.2 µM
- TGI [7]: > 100 µM
- TGI [8]: 42.5 µM
- TGI [9]: 82.2 µM
- TGI [10]: > 100 µM
- TGI [11]: 47.4 µM
- TGI [12]: 88.1 µM
- TGI [13]: 74.4 µM
- TGI [14]: > 100 µM
- TGI [15]: 68.8 µM
- TGI [16]: > 100 µM
- TGI [17]: 35.1 µM
- TGI [56]: 35.7 µM
- TGI [18]: > 100 µM
- TGI [19]: 59.4 µM
- TGI [20]: 52.4 µM
- TGI [21]: 99.3 µM
- TGI [22]: 81.9 µM
- TGI [23]: 44.8 µM
- TGI [24]: > 100 µM
- TGI [25]: 56 µM
- TGI [26]: 79.2 µM
- TGI [27]: 30 µM
- TGI [28]: 91.4 µM
- TGI [29]: 55.5 µM
- TGI [30]: 40.6 µM
- TGI [31]: 70.2 µM
- TGI [32]: 31.8 µM
- TGI [33]: > 100 µM
- TGI [34]: > 100 µM
- TGI [35]: 50.5 µM
- TGI [36]: > 100 µM
- TGI [38]: 58.9 µM
- TGI [39]: 95.8 µM
- TGI [40]: 30.5 µM
- TGI [41]: > 100 µM
- TGI [42]: 45.6 µM
- TGI [43]: 77.1 µM
- TGI [44]: > 100 µM
- TGI [45]: 68.3 µM
- TGI [46]: 38.8 µM
- TGI [47]: 50.2 µM
- TGI [57]: > 100 µM
- TGI [58]: 70.6 µM
- TGI [48]: 81.7 µM
- TGI [51]: > 100 µM
- TGI [52]: > 100 µM
- TGI [53]: > 100 µM
- TGI [54]: 81.5 µM
- TGI [55]: > 100 µM
- TGI [59]: > 100 µM
